Legend:
[1] = test system: Botrytis cinerea; experiment: Activity against Botrytis cinerea on bell peppers (fruit disks, protective spray); format: in vivo; details: green bell pepper disks, 4 days at 18° C.
Method: The active ingredients, separately or together, are formulated as a 10% emulsion in a mixture of 63% by weight of cyclohexanone and 27% by weight of emulsifier, and diluted with water to the desired concentration.
Evaluation is carried out by determining the infected leaf areas in percent. These percentages are converted into efficacies. The efficacy (W) is calculated as follows using Abbot's formula: […]
α corresponds to the fungal infection of the treated plants in % and
β corresponds to the fungal infection of the untreated (control) plants in %
An efficacy of 0 means that the infection level of the treated plants corresponds to that of the untreated control plants; an efficacy of 100 means that the treated plants were not infected.
The expected efficacies of the mixtures of the active ingredients were determined using Colby's formula [R. S. Colby, Weeds 15, 20-22 (1967)] and compared with the observed efficacies.
Colby's formula: E=x+y−x·y/100
Disks of green bell peppers were sprayed to runoff point with an aqueous preparation of active ingredient which had been prepared from a stock solution comprising 10% of active ingredient, 63% of cyclohexanone and 27% of emulsifier. 2 hours after the spray coating had dried on, the fruit disks were inoculated with a spore suspension of Botrytis cinerea containing 1.7×10^6 spores per ml of a 2% strength Biomalz solution. The inoculated fruit disks were subsequently incubated in humid chambers at 18° C. for 4 days. The Botrytis infection on the diseased fruit disks was then evaluated visually.

[2] = test system: Phytophthora infestans; format: in vivo; details: 0.8 ppm active ingredient in the spray liquor; tomato leaves; after 6 days at 16-18° C.
[3] = 12.5 ppm active ingredient in the spray liquor
[4] = 50 ppm active ingredient in the spray liquor

For `N#Cc1c(Cl)c(Cl)c(Cl)c(C#N)c1Cl` [Compound II, Tetrachloroisophthalonitrile, reference compound], the “Efficacy in % of the untreated control” value [1, 3] was 0%, the “Efficacy in % of the untreated control” value [1, 4] was 0% and the “Efficacy in % of the untreated control” value [2] was 0%.
In the case of `O=C(Nc1ccccc1-c1ccc(Cl)cc1)c1cccnc1Cl` [Compound I.2], the “Efficacy in % of the untreated control” value [1, 4] is reported as 85% and the “Efficacy in % of the untreated control” value [2] is reported as 0%.
`O=C(Nc1ccccc1-c1ccc(F)cc1)c1cccnc1Cl` [Compound I.1] was tested, and the “Efficacy in % of the untreated control” value [1, 3] was 20% and the “Efficacy in % of the untreated control” value [2] was 0%.
